Patent US10738068B2, “Organic/inorganic hybrid nanoparticulates made from iron carboxylates” (CENTRE NATIONAL DE LA RECHERCHE SCIENTIFIQUE—CNRS, priority 2007, dated 2020)
In brackets after ≈: the same amount, converted by molar mass. Read-outs that look alike come from different tables or passages of the source.

Legend:
[1] = cited from earlier work
[2] = Solubility of busulfan in various solvents; type: physicochemical
Description: The solvents chosen for the impregnation are those in which busulfan has appreciable solubility (acetone, acetonitrile, chloroform, dichloromethane, dimethyl carbonate) (Table 18).

Nc1ccn([C@@H]2O[C@H](CO)[C@@H](O)C2(F)F)c(=O)n1 [Gemcitabine]
Solubility in water [1]: water soluble

CC(=O)O[C@H]1C(=O)[C@@]2(C)[C@H]([C@H](OC(=O)c3ccccc3)[C@]3(O)C[C@H](OC(=O)[C@H](O)[C@@H](NC(=O)c4ccccc4)c4ccccc4)C(C)=C1C3(C)C)[C@]1(OC(C)=O)CO[C@@H]1C[C@@H]2O [Paclitaxel]
Solubility in ethanol and in DMSO ([1]; ethanol, DMSO): about 50 g/L

NC(N)=O [Urea]
Solubility in water ([1]; 20° C.): 1080 mg/mL (≈ 18000 mM)

CS(=O)(=O)OCCCCOS(C)(=O)=O [busulfan, 1,4-butanediol dimethylsulfonate]
Busulfan solubility ([2]; Chloroform): 8 mg/mL | Busulfan solubility ([2]; Ethanol): <<<4 mg/ml | Busulfan solubility ([2]; Ether): <<<4 mg/ml | Busulfan solubility ([2]; Hexane): <<<4 mg/ml | Busulfan solubility ([2]; Methanol): <<<4 mg/ml | Busulfan solubility ([2]; Tetrahydrofuran): ~5 mg/mL | Busulfan solubility ([2]; Toluene): ~4 mg/mL
